# Measurements as given in patent publication US20020111274A1, “1-alkyl-3-[1-(substituted phenyl) benzotriazol-6-yl] uracils” (BASF Aktiengesellschaft, priority 2000, published 2002).
# Experiments:
# [1] = tested on: CASOB Sicklepod; assay: Postemergence herbicidal evaluation, CASOB; format: in vivo, Cassia obtusifolia, L.; set-up: scale not given here; settings: rated two - three weeks after treatment
# In short: (§1)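 Ratings from greenhouse plants scored about two to three weeks after a foliar spray; data from multiple tests averaged. Seedlings about two weeks old received roughly 0.006–0.400 kg/ha active compound in 80/20 acetone/water with 1.0% methylated seed oil.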
# [2] = tested on: ORYSAT Rice, Tebonnet; assay: Preemergence herbicidal evaluation, ORYSAT; format: in vivo, Oryza sativa, (L.); set-up: scale not given here; settings: rated four to five weeks after treatment
# In short: (§2)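 First, seed is blended with potting soil and sown over roughly an inch of soil per cup. Next, the surface is sprayed with an aqueous acetone solution delivering about 0.013–0.800 kg/ha. Finally, cups are grown in the greenhouse and rated after 4–5 weeks.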
# [3] = tested on: CHEAL Lambsquarters, Common; assay: Preemergence herbicidal evaluation, CHEAL; format: in vivo, Chenopodium album, L.; set-up: scale not given here; settings: rated four to five weeks after treatment
# In short: as §2
# [4] = tested on: ZEAMX Corn, Field; assay: Preemergence herbicidal evaluation, ZEAMX; format: in vivo, Zea mays, L. (Sammel-Bezeichnung); set-up: scale not given here; settings: rated four to five weeks after treatment
# In short: as §2
# [5] = tested on: CASOB Sicklepod; assay: Preemergence herbicidal evaluation, CASOB; format: in vivo, Cassia obtusifolia, L.; set-up: scale not given here; settings: rated four to five weeks after treatment
# In short: as §2
# [6] = tested on: TRZAWR Wheat, Winter, cv Riband; assay: Postemergence herbicidal evaluation, TRZAWR; format: in vivo, Triticum aestivum; set-up: scale not given here; settings: rated two - three weeks after treatment
# In short: as §1
# [7] = tested on: SETVI Foxtail, Green; assay: Preemergence herbicidal evaluation, SETVI; format: in vivo, Setaria viridis, (L.) Beau; set-up: scale not given here; settings: rated four to five weeks after treatment
# In short: as §2
# [8] = tested on: ECHOG Barnyardgrass; assay: Postemergence herbicidal evaluation, ECHOG; format: in vivo, Echinochloa crus-galli, (L.) Beau; set-up: scale not given here; settings: rated two - three weeks after treatment
# In short: as §1
# [9] = tested on: ABUTH Velvetleaf; assay: Preemergence herbicidal evaluation, ABUTH; format: in vivo, Abutilon theophrasti, Medic.; set-up: scale not given here; settings: rated four to five weeks after treatment
# In short: as §2
# [10] = tested on: AMBEL Ragweed, Common; assay: Preemergence herbicidal evaluation, AMBEL; format: in vivo, Ambrosia artemisifolia, L.; set-up: scale not given here; settings: rated four to five weeks after treatment
# In short: as §2
# [11] = tested on: IPOHE Morningglory, Ivyleaf; assay: Postemergence herbicidal evaluation, IPOHE; format: in vivo, Ipomoea hederacea, (L.) Jacq.; set-up: scale not given here; settings: rated two - three weeks after treatment
# In short: as §1
# [12] = tested on: ORYSAT Rice, Tebonnet; assay: Postemergence herbicidal evaluation, ORYSAT; format: in vivo, Oryza sativa, (L.); set-up: scale not given here; settings: rated two - three weeks after treatment
# In short: as §1
# [13] = tested on: ECHOG Barnyardgrass; assay: Preemergence herbicidal evaluation, ECHOG; format: in vivo, Echinochloa crus-galli, (L.) Beau; set-up: scale not given here; settings: rated four to five weeks after treatment
# In short: as §2
# [14] = tested on: GLXMAW Soybean, Williams; assay: Preemergence herbicidal evaluation, GLXMAW; format: in vivo, Glycine max, (L.) Merr. cv Williams; set-up: scale not given here; settings: rated four to five weeks after treatment
# In short: as §2
# [15] = tested on: GALAP Galium; assay: Postemergence herbicidal evaluation, GALAP; format: in vivo, Galium aparine; set-up: scale not given here; settings: rated two - three weeks after treatment
# In short: as §1
# [16] = tested on: GLXMAW Soybean, Williams; assay: Postemergence herbicidal evaluation, GLXMAW; format: in vivo, Glycine max, (L.) Merr. cv Williams; set-up: scale not given here; settings: rated two - three weeks after treatment
# In short: as §1
# [17] = tested on: ZEAMX Corn, Field; assay: Postemergence herbicidal evaluation, ZEAMX; format: in vivo, Zea mays, L. (Sammel-Bezeichnung); set-up: scale not given here; settings: rated two - three weeks after treatment
# In short: as §1
# [18] = tested on: CHEAL Lambsquarters, Common; assay: Postemergence herbicidal evaluation, CHEAL; format: in vivo, Chenopodium album, L.; set-up: scale not given here; settings: rated two - three weeks after treatment
# In short: as §1
# [19] = tested on: ABUTH Velvetleaf; assay: Postemergence herbicidal evaluation, ABUTH; format: in vivo, Abutilon theophrasti, Medic.; set-up: scale not given here; settings: rated two - three weeks after treatment
# In short: as §1
# [20] = tested on: GALAP Galium; assay: Preemergence herbicidal evaluation, GALAP; format: in vivo, Galium aparine; set-up: scale not given here; settings: rated four to five weeks after treatment
# In short: as §2
# [21] = tested on: TRZAWR Wheat, Winter, cv Riband; assay: Preemergence herbicidal evaluation, TRZAWR; format: in vivo, Triticum aestivum; set-up: scale not given here; settings: rated four to five weeks after treatment
# In short: as §2
# [22] = tested on: IPOHE Morningglory, Ivyleaf; assay: Preemergence herbicidal evaluation, IPOHE; format: in vivo, Ipomoea hederacea, (L.) Jacq.; set-up: scale not given here; settings: rated four to five weeks after treatment
# In short: as §2
# [23] = tested on: AMBEL Ragweed, Common; assay: Postemergence herbicidal evaluation, AMBEL; format: in vivo, Ambrosia artemisifolia, L.; set-up: scale not given here; settings: rated two - three weeks after treatment
# In short: as §1
# [24] = tested on: SETVI Foxtail, Green; assay: Postemergence herbicidal evaluation, SETVI; format: in vivo, Setaria viridis, (L.) Beau; set-up: scale not given here; settings: rated two - three weeks after treatment
# In short: as §1
structure (smiles),measurement,setting,value
"CCc1cccc(-n2nnc3cc(F)c(-n4c(=O)cc(C(F)(F)F)[nH]c4=O)cc32)c1 [Example 13, 3-[1-(3-ethylphenyl)-5-fluoro-1H-1,2,3-benzotriazol-6-yl]-6-(trifluoromethyl)-2,4(1H,3H)-pyrimidinedione]",melting point,,160 °C
COC(=O)COc1ccc(-n2nnc3cc(F)c(-n4c(=O)cc(C(F)(F)F)n(C)c4=O)cc32)cc1 [Example 45],Postemergence herbicidal rating CASOB,[1]; rate 0.008 kg/ha,0.0
same,Postemergence herbicidal rating CASOB,[1]; rate 0.016 kg/ha,0.0
same,Postemergence herbicidal rating CASOB,[1]; rate 0.032 kg/ha,4.0
same,Postemergence herbicidal rating CASOB,[1]; rate 0.062 kg/ha,5.0
same,"Preemergence herbicidal rating, ORYSAT",[2]; rate 0.016 kg/ha,0.0
same,"Preemergence herbicidal rating, ORYSAT",[2]; rate 0.032 kg/ha,0.0
same,"Preemergence herbicidal rating, ORYSAT",[2]; rate 0.062 kg/ha,0.0
same,"Preemergence herbicidal rating, ORYSAT",[2]; rate 0.125 kg/ha,5.0
same,"Preemergence herbicidal rating, CHEAL",[3]; rate 0.016 kg/ha,0.0
same,"Preemergence herbicidal rating, CHEAL",[3]; rate 0.032 kg/ha,0.0
same,"Preemergence herbicidal rating, CHEAL",[3]; rate 0.062 kg/ha,9.0
same,"Preemergence herbicidal rating, CHEAL",[3]; rate 0.125 kg/ha,9.0
same,"Preemergence herbicidal rating, ZEAMX",[4]; rate 0.016 kg/ha,0.0
same,"Preemergence herbicidal rating, ZEAMX",[4]; rate 0.032 kg/ha,0.0
same,"Preemergence herbicidal rating, ZEAMX",[4]; rate 0.062 kg/ha,0.0
same,"Preemergence herbicidal rating, ZEAMX",[4]; rate 0.125 kg/ha,0.0
same,"Preemergence herbicidal rating, CASOB",[5]; rate 0.016 kg/ha,0.0
same,"Preemergence herbicidal rating, CASOB",[5]; rate 0.032 kg/ha,0.0
same,"Preemergence herbicidal rating, CASOB",[5]; rate 0.062 kg/ha,0.0
same,Postemergence herbicidal rating TRZAWR,[6]; rate 0.008 kg/ha,4.0
same,Postemergence herbicidal rating TRZAWR,[6]; rate 0.016 kg/ha,6.0
same,Postemergence herbicidal rating TRZAWR,[6]; rate 0.032 kg/ha,6.0
same,Postemergence herbicidal rating TRZAWR,[6]; rate 0.062 kg/ha,8.0
same,"Preemergence herbicidal rating, SETVI",[7]; rate 0.016 kg/ha,0.0
same,"Preemergence herbicidal rating, SETVI",[7]; rate 0.032 kg/ha,0.0
same,"Preemergence herbicidal rating, SETVI",[7]; rate 0.062 kg/ha,9.0
same,"Preemergence herbicidal rating, SETVI",[7]; rate 0.125 kg/ha,9.0
same,Postemergence herbicidal rating ECHCG,[8]; rate 0.008 kg/ha,0.0
same,Postemergence herbicidal rating ECHCG,[8]; rate 0.016 kg/ha,5.0
same,Postemergence herbicidal rating ECHCG,[8]; rate 0.032 kg/ha,8.0
same,Postemergence herbicidal rating ECHCG,[8]; rate 0.062 kg/ha,9.0
same,"Preemergence herbicidal rating, ABUTH",[9]; rate 0.016 kg/ha,0.0
same,"Preemergence herbicidal rating, ABUTH",[9]; rate 0.032 kg/ha,0.0
same,"Preemergence herbicidal rating, ABUTH",[9]; rate 0.062 kg/ha,4.0
same,"Preemergence herbicidal rating, ABUTH",[9]; rate 0.125 kg/ha,9.0
same,"Preemergence herbicidal rating, AMBEL",[10]; rate 0.016 kg/ha,0.0
same,"Preemergence herbicidal rating, AMBEL",[10]; rate 0.032 kg/ha,0.0
same,"Preemergence herbicidal rating, AMBEL",[10]; rate 0.062 kg/ha,0.0
same,"Preemergence herbicidal rating, AMBEL",[10]; rate 0.125 kg/ha,0.0
same,Postemergence herbicidal rating IPOHE,[11]; rate 0.008 kg/ha,9.0
same,Postemergence herbicidal rating IPOHE,[11]; rate 0.016 kg/ha,9.0
same,Postemergence herbicidal rating IPOHE,[11]; rate 0.032 kg/ha,9.0
same,Postemergence herbicidal rating IPOHE,[11]; rate 0.062 kg/ha,9.0
same,Postemergence herbicidal rating ORYSAT,[12]; rate 0.008 kg/ha,0.5
same,Postemergence herbicidal rating ORYSAT,[12]; rate 0.016 kg/ha,1.0
same,Postemergence herbicidal rating ORYSAT,[12]; rate 0.032 kg/ha,2.0
same,Postemergence herbicidal rating ORYSAT,[12]; rate 0.062 kg/ha,3.5
same,"Preemergence herbicidal rating, ECHCG",[13]; rate 0.016 kg/ha,0.0
same,"Preemergence herbicidal rating, ECHCG",[13]; rate 0.032 kg/ha,0.0
same,"Preemergence herbicidal rating, ECHCG",[13]; rate 0.062 kg/ha,0.0
same,"Preemergence herbicidal rating, ECHCG",[13]; rate 0.125 kg/ha,0.0
same,"Preemergence herbicidal rating, GLXMAW",[14]; rate 0.016 kg/ha,0.0
same,"Preemergence herbicidal rating, GLXMAW",[14]; rate 0.032 kg/ha,0.0
same,"Preemergence herbicidal rating, GLXMAW",[14]; rate 0.062 kg/ha,0.0
same,"Preemergence herbicidal rating, GLXMAW",[14]; rate 0.125 kg/ha,1.0
same,Postemergence herbicidal rating GALAP,[15]; rate 0.008 kg/ha,0.0
same,Postemergence herbicidal rating GALAP,[15]; rate 0.016 kg/ha,0.0
same,Postemergence herbicidal rating GALAP,[15]; rate 0.032 kg/ha,1.0
same,Postemergence herbicidal rating GALAP,[15]; rate 0.062 kg/ha,3.0
same,Postemergence herbicidal rating GLXMAW,[16]; rate 0.008 kg/ha,6.0
same,Postemergence herbicidal rating GLXMAW,[16]; rate 0.016 kg/ha,6.5
same,Postemergence herbicidal rating GLXMAW,[16]; rate 0.032 kg/ha,8.0
same,Postemergence herbicidal rating GLXMAW,[16]; rate 0.062 kg/ha,8.0
same,Postemergence herbicidal rating ZEAMX,[17]; rate 0.008 kg/ha,7.5
same,Postemergence herbicidal rating ZEAMX,[17]; rate 0.016 kg/ha,8.0
same,Postemergence herbicidal rating ZEAMX,[17]; rate 0.032 kg/ha,8.0
same,Postemergence herbicidal rating ZEAMX,[17]; rate 0.062 kg/ha,9.0
same,Postemergence herbicidal rating CHEAL,[18]; rate 0.008 kg/ha,2.0
same,Postemergence herbicidal rating CHEAL,[18]; rate 0.016 kg/ha,4.0
same,Postemergence herbicidal rating CHEAL,[18]; rate 0.032 kg/ha,7.0
same,Postemergence herbicidal rating CHEAL,[18]; rate 0.062 kg/ha,7.0
same,Postemergence herbicidal rating ABUTH,[19]; rate 0.008 kg/ha,9.0
same,Postemergence herbicidal rating ABUTH,[19]; rate 0.016 kg/ha,9.0
same,Postemergence herbicidal rating ABUTH,[19]; rate 0.032 kg/ha,9.0
same,Postemergence herbicidal rating ABUTH,[19]; rate 0.062 kg/ha,9.0
same,"Preemergence herbicidal rating, GALAP",[20]; rate 0.016 kg/ha,0.0
same,"Preemergence herbicidal rating, GALAP",[20]; rate 0.032 kg/ha,0.0
same,"Preemergence herbicidal rating, GALAP",[20]; rate 0.062 kg/ha,4.0
same,"Preemergence herbicidal rating, GALAP",[20]; rate 0.125 kg/ha,4.0
same,"Preemergence herbicidal rating, TRZAWR",[21]; rate 0.016 kg/ha,0.0
same,"Preemergence herbicidal rating, TRZAWR",[21]; rate 0.032 kg/ha,0.0
same,"Preemergence herbicidal rating, TRZAWR",[21]; rate 0.062 kg/ha,0.0
same,"Preemergence herbicidal rating, TRZAWR",[21]; rate 0.125 kg/ha,1.0
same,"Preemergence herbicidal rating, IPOHE",[22]; rate 0.016 kg/ha,0.0
same,"Preemergence herbicidal rating, IPOHE",[22]; rate 0.032 kg/ha,0.0
same,"Preemergence herbicidal rating, IPOHE",[22]; rate 0.062 kg/ha,0.0
same,"Preemergence herbicidal rating, IPOHE",[22]; rate 0.125 kg/ha,4.0
same,Postemergence herbicidal rating AMBEL,[23]; rate 0.008 kg/ha,2.0
same,Postemergence herbicidal rating AMBEL,[23]; rate 0.016 kg/ha,3.0
same,Postemergence herbicidal rating AMBEL,[23]; rate 0.032 kg/ha,7.0
same,Postemergence herbicidal rating AMBEL,[23]; rate 0.062 kg/ha,9.0
same,Postemergence herbicidal rating SETVI,[24]; rate 0.008 kg/ha,3.0
same,Postemergence herbicidal rating SETVI,[24]; rate 0.016 kg/ha,8.0
same,Postemergence herbicidal rating SETVI,[24]; rate 0.032 kg/ha,9.0
same,Postemergence herbicidal rating SETVI,[24]; rate 0.062 kg/ha,9.0
